Assays:
ASPC1 cells, pERK = assay: Inhibition of KRas phosphorylation of ERK (Cisbio HTRF Advanced pERK assay); type: cell-based; settings: Homo sapiens, ASPC1, 3 h, AsPC-1 cells, read-out: Inhibition (HTRF IC50 nM) of KRas-mediated Phosphorylation of ERK, AsPC-1
Experimental: (§1) Inhibition of KRas Phosphorylation of ERK (HTRF) by Exemplary Compounds of Formula (I)
(§2) Cisbio HTRF Advanced pERK Assay Catalog #64AERPEH
(§3) • Day 1: Seed 6,000 cells/well −25 μl/well in 384-well white solid bottom plate; RPM1_10% FBS. […] To harvest cells from flask using 0.05% Trypsin/EDTA solution. Add 10 mL of media to stop trypsinizing. Pipette the cells into a conical bottom 50 mL centrifuge tube and centrifuge 5 min×1000 rpm. • 2. Re-suspend the cell pellet in media, take a cell count, and then adjust the cell density using fresh media. • 3. Seed 6,000 cells into cell culture plate with […]. The • 4. Incubate cell plate overnight in a 37° C., 5% CO2 incubator. Compound Titrations • 1. Use Tecan to complete the compound addition. Compounds start from 10 uM top, 3-fold dilution, and 10 doses. The final DMSO concentration is 0.8%. Dispensed 0.2 uM Trametinib as Min control. • 2. Incubate cell plate for 3 hrs in the incubator. Detection with Cisbio pERK HTRF Kit • 1. Dilute 1 volume of 4× lysis buffer with 3 volumes of deionized water. Then, add 100× the blocking reagent. Keep lysis buffer on the ice. • 2. At the end of the compound treatment, flick-off the media. • 3. Add 35 μL of lysis buffer per well using a Multidrop Combi. Then place on a plate agitator shaking at 300 rpm at 4° C. for 40 mins. • 4. Make up the HTRF antibody buffer. For each assay plate, mix 50 μL of d2-conjugate antibody with 950 μL of detection buffer. Similarly, mix 50 μL of Cryptate antibody with 950 μL of detection buffer. Then mix the two diluted antibodies together. • 5. Dispense 3.4 μL the antibody buffer to wells of an empty assay plate. Seal the plate and centrifuge plate 30 sec×1000 rpm. • 6. At the end of the 4° C. lysis, centrifuge the lysate plates 3 mins×1500 rpm. • 7. Use the Bravo to transfer 13.6 μL of lysate from cell culture plate to assay plate. Then incubate assay plate for 2 hrs at room temperature. • 8. At the end of incubation, read plate on the Envision after centrifuging plate 30 sec×1000 rpm.

H727 cells, pERK = assay: as above; type: cell-based; settings: Homo sapiens, NCI-H727, 3 h, read-out: Inhibition (HTRF IC50 nM) of KRas-mediated Phosphorylation of ERK, H727
Experimental: as §1, §2, §3

KRas^G12R = biological target: T1, KRas^G12R (Homo sapiens, UniProt P01116, G12R); assay: KRas binding assay (TR-FRET displacement of Cy5 labelled tracer)
T1 construct: […]; biotin (biotinylated); purchased Accelegan Inc

KRas^G12V = biological target: T2, KRas^G12V (Homo sapiens, UniProt P01116, G12V); assay: as above
T2 construct: […]; biotin (biotinylated); purchased Accelegan Inc

KRas^G12D = biological target: T3, KRas^G12D (Homo sapiens, UniProt P01116, G12D); assay: as above
T3 construct: […]; biotin (biotinylated); purchased Accelegan Inc

KRas^G12A = biological target: T4, KRas^G12A (Homo sapiens, UniProt P01116, G12A); assay: as above
T4 construct: […]; biotin (biotinylated); purchased Accelegan Inc

KRas^G12S = biological target: T5, KRas^G12S (Homo sapiens, UniProt P01116, G12S); assay: as above
T5 construct: […]; biotin (biotinylated); purchased Accelegan Inc

KRas^WT = biological target: T6, KRas^WT (Homo sapiens, UniProt P01116); assay: as above
T6 construct: […]; biotin (biotinylated); purchased Accelegan Inc

KRas^G13D = KRas^G13D (Homo sapiens, UniProt P01116, G13D); assay: biochemical
KRas^G12C = KRas^G12C (Homo sapiens, UniProt P01116, G12C); assay: biochemical
KRas^Q61H = KRas^Q61H (Homo sapiens, UniProt P01116, Q61H); assay: biochemical
Chain of KRas^Q61H (P01116 1-169 isoform P01116-2 Q61H): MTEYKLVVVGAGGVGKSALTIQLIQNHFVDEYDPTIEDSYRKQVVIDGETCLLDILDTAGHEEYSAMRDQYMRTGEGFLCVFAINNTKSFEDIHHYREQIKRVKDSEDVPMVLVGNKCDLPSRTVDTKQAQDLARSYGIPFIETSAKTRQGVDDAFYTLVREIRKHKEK

T6 sequence (P01116 1-169 isoform P01116-2): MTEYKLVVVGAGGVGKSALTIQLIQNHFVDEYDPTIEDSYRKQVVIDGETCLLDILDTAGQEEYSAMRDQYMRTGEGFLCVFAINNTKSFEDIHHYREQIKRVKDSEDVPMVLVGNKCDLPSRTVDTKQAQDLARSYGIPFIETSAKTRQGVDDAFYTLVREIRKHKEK
T3 sequence (P01116 1-169 isoform P01116-2 G12D): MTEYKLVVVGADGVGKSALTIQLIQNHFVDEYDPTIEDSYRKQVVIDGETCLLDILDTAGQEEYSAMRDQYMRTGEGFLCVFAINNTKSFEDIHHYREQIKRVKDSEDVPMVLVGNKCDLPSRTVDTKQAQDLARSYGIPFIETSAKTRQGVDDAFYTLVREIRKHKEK
Chain of KRas^G13D (P01116 1-169 isoform P01116-2 G13D): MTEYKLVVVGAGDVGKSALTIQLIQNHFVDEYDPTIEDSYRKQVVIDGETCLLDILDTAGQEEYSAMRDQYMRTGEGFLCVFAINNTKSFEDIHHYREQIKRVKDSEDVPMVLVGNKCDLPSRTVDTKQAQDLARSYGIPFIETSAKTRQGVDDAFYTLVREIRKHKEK
T2 sequence (P01116 1-169 isoform P01116-2 G12V): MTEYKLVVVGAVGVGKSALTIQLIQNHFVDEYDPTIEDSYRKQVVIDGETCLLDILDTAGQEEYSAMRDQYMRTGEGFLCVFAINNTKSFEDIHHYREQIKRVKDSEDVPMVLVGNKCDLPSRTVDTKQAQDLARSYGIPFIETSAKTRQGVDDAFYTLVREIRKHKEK
T4 sequence (P01116 1-169 isoform P01116-2 G12A): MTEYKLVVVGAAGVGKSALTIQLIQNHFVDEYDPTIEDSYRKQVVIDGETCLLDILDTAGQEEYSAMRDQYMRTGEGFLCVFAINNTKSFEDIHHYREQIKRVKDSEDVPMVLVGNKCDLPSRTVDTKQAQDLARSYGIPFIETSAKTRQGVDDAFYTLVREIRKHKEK
Chain of KRas^G12C (P01116 1-169 isoform P01116-2 G12C): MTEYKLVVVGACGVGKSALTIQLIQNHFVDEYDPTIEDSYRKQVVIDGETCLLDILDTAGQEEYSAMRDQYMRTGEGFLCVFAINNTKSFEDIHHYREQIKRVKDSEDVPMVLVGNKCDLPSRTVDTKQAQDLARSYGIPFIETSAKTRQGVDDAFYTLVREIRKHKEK
T1 sequence (P01116 1-169 isoform P01116-2 G12R): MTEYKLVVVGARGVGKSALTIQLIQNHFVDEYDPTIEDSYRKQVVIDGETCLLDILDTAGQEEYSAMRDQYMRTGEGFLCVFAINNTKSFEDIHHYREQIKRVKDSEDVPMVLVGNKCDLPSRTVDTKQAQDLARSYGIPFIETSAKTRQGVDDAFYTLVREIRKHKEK
T5 sequence (P01116 1-169 isoform P01116-2 G12S): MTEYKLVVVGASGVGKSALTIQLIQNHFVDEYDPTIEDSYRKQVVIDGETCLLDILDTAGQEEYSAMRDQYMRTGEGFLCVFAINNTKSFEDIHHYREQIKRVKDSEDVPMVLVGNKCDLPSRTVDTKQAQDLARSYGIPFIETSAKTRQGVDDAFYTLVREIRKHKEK

Structure (SMILES)	IC50 (ASPC1 cells, pERK)	IC50 (H727 cells, pERK)	IC50 (KRas^G12R)	IC50 (KRas^G12V)	IC50 (KRas^G12D)	IC50 (KRas^G12A)	IC50 (KRas^G12S)	IC50 (KRas^WT)	IC50 (KRas^G13D)	IC50 (KRas^G12C)	IC50 (KRas^Q61H)
Cc1cc2[nH]ncc2c(N2CCc3c(nc(OCC45CCCN4CCC5)nc3N3CCC[C@@](C)(O)C3)C2)c1C [Example 15, (R)-1-(7-(5,6-dimethyl-1H-indazol-4-yl)-2-((hexahydro-1H-pyrrolizin-7a-yl)methoxy)-5,6,7,8-tetrahydropyrido[3,4-d]pyrimidin-4-yl)-3-methylpiperidin-3-ol]	1110 nM	3190 nM	0.144 µM	0.103 µM	0.126 µM	–	–	–	–	–	–
CCc1c(F)ccc2cc(O)cc(N3CCc4c(nc(OC[C@@]56CCCN5C[C@H](F)C6)nc4N4CC5CCC(C4)O5)C3)c12 [Example 176, 4-(4-(8-oxa-3-azabicyclo[3.2.1]octan-3-yl)-2-(((2R,7aS)-2-fluorotetrahydro-1H-pyrrolizin-7a(5H)-yl)methoxy)-5,8-dihydropyrido[3,4-d]pyrimidin-7(6H)-yl)-5-ethyl-6-fluoronaphthalen-2-ol]	5940 nM	984 nM	≤ 0.002 µM	0.011 µM	0.078 µM	–	–	–	–	–	–
CCc1c(F)ccc2cc(O)cc(N3CCc4c(nc(OC[C@@]56CCCN5C[C@H](F)C6)nc4N4C[C@H](O)C[C@@H](C(N)=O)C4)C3)c12 [Example 186, (3R,5R)-1-(7-(8-ethyl-7-fluoro-3-hydroxynaphthalen-1-yl)-2-(((2R,7aS)-2-fluorohexahydro-1H-pyrrolizin-7a-yl)methoxy)-5,6,7,8-tetrahydropyrido[3,4-d]pyrimidin-4-yl)-5-hydroxypiperidine-3-carboxamide]	4360 nM	2670 nM	≤ 0.002 µM	≤ 0.002 µM	≤ 0.002 µM	–	–	–	–	–	–
CCc1c(F)ccc2cc(O)cc(N3CCc4c(nc(OC[C@@]56CCCN5C[C@H](F)C6)nc4N4C[C@H](O)C[C@H](C(N)=O)C4)C3)c12 [Example 187, (3S,5R)-1-(7-(8-ethyl-7-fluoro-3-hydroxynaphthalen-1-yl)-2-(((2R,7aS)-2-fluorohexahydro-1H-pyrrolizin-7a-yl)methoxy)-5,6,7,8-tetrahydropyrido[3,4-d]pyrimidin-4-yl)-5-hydroxypiperidine-3-carboxamide]	5330 nM	1320 nM	≤ 0.002 µM	≤ 0.002 µM	0.004 µM	–	–	–	–	–	–
C[C@@]1(O)CCCN(c2nc(OCC34CCCN3CCC4)nc3c2CCN(c2cc(O)cc(Cl)c2C2CC2)C3)C1 [Example 204, (R)-1-(7-(3-chloro-2-cyclopropyl-5-hydroxyphenyl)-2-((hexahydro-1H-pyrrolizin-7a-yl)methoxy)-5,6,7,8-tetrahydropyrido[3,4-d]pyrimidin-4-yl)-3-methylpiperidin-3-ol]	1530 nM	1670 nM	0.009 µM	0.006 µM	0.006 µM	–	–	–	–	–	–

The remaining lines, values ahead:

IC50 (ASPC1 cells, pERK)	IC50 (H727 cells, pERK)	IC50 (KRas^G12R)	IC50 (KRas^G12V)	IC50 (KRas^G12D)	IC50 (KRas^G12A)	IC50 (KRas^G12S)	IC50 (KRas^WT)	IC50 (KRas^G13D)	IC50 (KRas^G12C)	IC50 (KRas^Q61H)	Structure (SMILES)
–	–	2.79 µM	8.35 µM	7.51 µM	5.22 µM	3.43 µM	4.08 µM	3.41 µM	3.79 µM	3.98 µM	CCc1cccc2cccc(N3CCc4c(nc(OCC56CCCN5CCC6)nc4N4CCCC(c5nc(C)no5)C4)C3)c12 (stereo not shown) [Example 162, 5-(1-(7-(8-ethylnaphthalen-1-yl)-2-((tetrahydro-1H-pyrrolizin-7a(5H)-yl)methoxy)-5,6,7,8-tetrahydropyrido[3,4-d]pyrimidin-4-yl)piperidin-3-yl)-3-methyl-1,2,4-oxadiazole]
–	–	7.47 µM	4.34 µM	14.2 µM	8.67 µM	8.07 µM	5.92 µM	6.71 µM	3.87 µM	6.55 µM	CCc1cccc2cccc(N3CCc4c(nc(OCC56CCCN5CCC6)nc4NCCS(=O)(=O)N=S(C)(C)=O)C3)c12 [Example 165, N-(dimethyl(oxo)-16-sulfaneylidene)-2-((7-(8-ethylnaphthalen-1-yl)-2-((tetrahydro-1H-pyrrolizin-7a(5H)-yl)methoxy)-5,6,7,8-tetrahydropyrido[3,4-d]pyrimidin-4-yl)amino)ethane-1-sulfonamide]
–	–	4.65 µM	7.32 µM	9.85 µM	5.51 µM	5.13 µM	4.81 µM	4.8 µM	4.15 µM	4.58 µM	CCc1cccc2cccc(N3CCc4c(nc(OCC56CCCN5CCC6)nc4N4CCCC(c5nnc(CO)n5C)C4)C3)c12 (stereo not shown) [Example 166, (5-(1-(7-(8-ethylnaphthalen-1-yl)-2-((tetrahydro-1H-pyrrolizin-7a(5H)-yl)methoxy)-5,6,7,8-tetrahydropyrido[3,4-d]pyrimidin-4-yl)piperidin-3-yl)-4-methyl-4H-1,2,4-triazol-3-yl)methanol]
–	–	4.95 µM	7.12 µM	26.4 µM	11.1 µM	9.63 µM	15 µM	21.9 µM	5.39 µM	14.6 µM	CCc1cccc2cccc(N3CCc4c(nc(OCC56CCCN5CCC6)nc4NC4CCc5ncsc5C4)C3)c12 (stereo not shown) [Example 168, N-(7-(8-ethylnaphthalen-1-yl)-2-((tetrahydro-1H-pyrrolizin-7a(5H)-yl)methoxy)-5,6,7,8-tetrahydropyrido[3,4-d]pyrimidin-4-yl)-4,5,6,7-tetrahydrobenzo[d]thiazol-6-amine]
–	–	11.9 µM	5.87 µM	25 µM	27.9 µM	16.4 µM	17 µM	16.4 µM	15.1 µM	17 µM	CCc1cccc2cccc(N3CCc4c(nc(OCC56CCCN5CCC6)nc4NC4CC5CC5C4)C3)c12 (stereo not shown) [Example 170, N-(bicyclo[3.1.0]hexan-3-yl)-7-(8-ethylnaphthalen-1-yl)-2-((tetrahydro-1H-pyrrolizin-7a(5H)-yl)methoxy)-5,6,7,8-tetrahydropyrido[3,4-d]pyrimidin-4-amine]
≥ 10000 nM	≥ 10000 nM	6.43 µM	4.7 µM	4.69 µM	–	–	–	–	–	–	CN1CCC[C@H]1COc1nc2c(c(N3CCOCC(C)(O)C3)n1)CCN(c1cccc3cccc(Cl)c13)C2 (stereo partly drawn) [Example 205, 4-[7-(8-chloro-1-naphthyl)-2-[[(2S)-1-methylpyrrolidin-2-yl]methoxy]-6,8-dihydro-5H-pyrido[3,4-d]pyrimidin-4-yl]-6-methyl-1,4-oxazepan-6-ol]
≥ 10000 nM	≥ 10000 nM	1.62 µM	0.833 µM	0.932 µM	–	–	–	–	–	–	CN1CCC[C@H]1COc1nc2c(c(N3C[C@@H]4C(=O)NC(=O)[C@@H]4C3)n1)CCN(c1cccc3cccc(Cl)c13)C2 [Example 206, (3aS,6aR)-5-[7-(8-chloro-1-naphthyl)-2-[[(2S)-1-methylpyrrolidin-2-yl]methoxy]-6,8-dihydro-5H-pyrido[3,4-d]pyrimidin-4-yl]-3a,4,6,6a-tetrahydropyrrolo[3,4-c]pyrrole-1,3-dione]
≥ 10000 nM	≥ 10000 nM	0.553 µM	0.404 µM	0.765 µM	–	–	–	–	–	–	CN1CCC[C@H]1COc1nc2c(c(N3CCCC4(CC(=O)N4)C3)n1)CCN(c1cccc3cccc(Cl)c13)C2 (stereo partly drawn) [Example 207, 8-[7-(8-chloro-1-naphthyl)-2-[[(2S)-1-methylpyrrolidin-2-yl]methoxy]-6,8-dihydro-5H-pyrido[3,4-d]pyrimidin-4-yl]-1,8-diazaspiro[3.5]nonan-2-one]
